Columns and labels:
[1] = Reversed-phase HPLC-RAD/DAD retention of DHP and pyridazine forms; type: physicochemical; conditions: HPLC-RAD/DAD and HPLC-RAD/UV, Kinetex 5 µm C18 250 × 10.0 mm, 20-50% B in 20 min, H2O/ACN + 0.1% TFA, 3 mL/min, room temperature; elution order used as indication of lipophilicity
Experimental: The HPLC instruments were equipped with either two channel UV/VIS or a PDA detector, and a NaI(Tl) scintillation detector for detection of radioactivity.
Table S2. The gradient used for HPLC-RAD/DAD studies.
Flow rate: 3 mL/min at room temperature
Column: Phenomenex Kinetex® 5 µm C18 100 Å, LC Column 250 × 10.0 mm
Eluents: (A) H2O+0.1% Trifluoroacetic acid and (B) ACN +0.1% Trifluoroacetic acid

[2] = Incubation tests of IEDDA cycloaddition product (conversion of DHPs to oxidized pyridazine form); type: physicochemical; conditions: for Conversion to oxidized form of the peptide cycloadduct: incubation in ≥95% (v/v) water at 60 °C; for Conversion to oxidized form of the peptide cycloadduct / [18F]AmBF3(ox.)-TOC (%): radio-HPLC
Experimental: Protic solvents in acidic reaction conditions at various temperatures were used in-order to investigate the conditions that might influence the formation of the oxidized form from DHPs or that might slow down the process. […] The (radio)peaks of [^19F/^18F]6(a, b) (peptide 6, tR = 20 min) were successfully converted (≥97%) to the more polar compound (peptide 6, tR = 17 min) by incubation in increasing amounts of water in acetonitrile (Fig. 2C). When incubating in 75% (v/v) ACN in water for 10 min at 60 °C, the conversion to polar (peptide 6, tR = 17 min) compound was 59% (ESI Table S7 ^†).
Table S7. Incubation tests of IEDDA cycloaddition product.
Peptide Peptide Solvent Vol. pH Temp. Time [18F] AmBF3 (ox.)-
(nmol) (v/v-%) (µL) (°C) (min) TOC (%)

[3] = Lipophilicity (LogD7.4), shake-flask method
Experimental: Lipophilicity. Shake-flask method was used for determining the lipophilicities (LogD7.4) of the radiolabeled
compounds. LogD7.4 was determined as a distribution of radioactivity between 0.01 M PBS and octanol. The
purified radiolabeled compound (25 µL) was added to a 1:1 mixture of 1-octanol and 0.02 M PBS (pH 7.4) in
a 1.5 mL microtube. The mixture was shaken mechanically at 500 rpm for 10 minutes, centrifuged (1000 × g,
5 minutes), and the layers were separated, followed by pipetting a sample (500 µL) from each layer into a pre-
weighed polypropylene tube. The radioactivity in the sample was measured with a Wizard gamma counter.
The distribution of the radiolabeled compound between the octanol and the PBS layers was calculated

[4] = tested on: SSTR2-expressing rat pancreatic adenocarcinoma AR42J cells; assay: Cell uptake assay in AR42J cells; type: cell-based; conditions: oxidized pyridazine form, gamma counting
Experimental: Aoct=activity in the octanol phase
APBS=activity in the PBS phase
Cell-uptake assay in AR42J
The cells were cultured in Gibco™ F-12K Medium
1×PBS was prepared from Phosphate Buffered Saline
Tablets (Fisher Bioreagents, Hampton, USA) in water. 1.0 M Sodium hydroxide was purchased from VWR […]
Chemicals. […] AR42J cells (1×106 per […]
well) were seeded overnight on 6-well plates.
Another set of cells were co-incubated in […]
microtube (=free fraction). […]
washing the cells with cold 1×PBS. […] 1 M NaOH […]
microtube (=internalized fraction).

[5] = tested on: tumour; conditions: ex vivo biodistribution and PET/CT imaging; tumour uptake efficiently blocked; ref earlier cohort by us; cited from earlier work
Experimental: In this study, we report a rapid, mild, and facile method for converting dihydropyridazine cycloaddition products to pyridazine during IEDDA, in only 10 minutes.

In the case of `C[C@@H](O)[C@@H]1NC(=O)[C@H](CCCCN)NC(=O)[C@@H](Cc2c[nH]c3ccccc23)NC(=O)[C@H](Cc2ccc(O)cc2)NC(=O)[C@@H](NC(=O)[C@@H](Cc2ccccc2)NC(=O)CCOCCOCCOCCOCCON=Cc2ccc(CNC(=O)OC3CCCc4cnnc(-c5ccc(CC(=O)NCC[N+](C)(C)C[B-](F)(F)F)cc5)c4CC3)cc2)CSSC[C@@H](C(=O)N[C@H](CO)[C@@H](C)O)NC1=O` (stereo partly shown) [[18F]5 (ox.), AmBF3-PEG4-TOC], the Retention time [1] is reported as 18.7 min, the “Conversion to oxidized form of the peptide cycloadduct” value [2] is reported as “full conversion” and the logD ([3]; pH 7.4) is reported as 0.58 ± 0.06.
`C[C@@H](O)[C@@H]1NC(=O)[C@H](CCCCN)NC(=O)[C@@H](Cc2c[nH]c3ccccc23)NC(=O)[C@H](Cc2ccc(O)cc2)NC(=O)[C@@H](NC(=O)[C@@H](Cc2ccccc2)NC(=O)CCOCCOCCOCCOCCON=Cc2ccc(C(=O)NCCOCCOCCOCCNC(=O)OC3CCCC4=C(c5ccc(CC(=O)NCC[N+](C)(C)C[B-](F)(F)F)cc5)NN=CC4CC3)cc2)CSSC[C@@H](C(=O)N[C@H](CO)[C@@H](C)O)NC1=O` (stereo partly shown) [[18F]6 (DHP, a)] showed a Retention time [1] of 20.6 min.
Work on `C[C@@H](O)[C@@H]1NC(=O)[C@H](CCCCN)NC(=O)[C@@H](Cc2c[nH]c3ccccc23)NC(=O)[C@H](Cc2ccc(O)cc2)NC(=O)[C@@H](NC(=O)[C@@H](Cc2ccccc2)NC(=O)CCOCCOCCOCCOCCON=Cc2ccc(C(=O)NCCOCCOCCOCCNC(=O)OC3CCCC4=C(c5ccc(CC(=O)NCC[N+](C)(C)C[B-](F)(F)F)cc5)NN=CC4CC3)cc2)CSSC[C@@H](C(=O)N[C@H](CO)[C@@H](C)O)NC1=O` (stereo partly shown) [[18F]6 (DHP, b)] yielded a Retention time [1] of 20.2 min.
In the case of `C[C@@H](O)[C@@H]1NC(=O)[C@H](CCCCN)NC(=O)[C@@H](Cc2c[nH]c3ccccc23)NC(=O)[C@H](Cc2ccc(O)cc2)NC(=O)[C@@H](NC(=O)[C@@H](Cc2ccccc2)NC(=O)CCOCCOCCOCCOCCON=Cc2ccc(C(=O)NCCOCCOCCOCCNC(=O)OC3CCCc4cnnc(-c5ccc(CC(=O)NCC[N+](C)(C)C[B-](F)(F)F)cc5)c4CC3)cc2)CSSC[C@@H](C(=O)N[C@H](CO)[C@@H](C)O)NC1=O` (stereo partly shown) [[18F]6, AmBF3-PEG7-TOC], the “[18F]AmBF3(ox.)-TOC (%)” value ([2]; 2 nmol peptide, ACN:H2O (25:75), 60 µL, 60 °C, 15 min, n = 1) is reported as 84%, the “[18F]AmBF3(ox.)-TOC (%)” value ([2]; 2.5 nmol peptide, 0.15 mM citrate buffer, 180 µL, pH 3.75, 60 °C, 10 min) is reported as 9% and the “[18F]AmBF3(ox.)-TOC (%)” value ([2]; 2.5 nmol peptide, ACN:H2O (25:75), 20 µL, 60 °C, 10 min) is reported as 89%. The “[18F]AmBF3(ox.)-TOC (%)” value ([2]; 2.5 nmol peptide, ACN:H2O (40:60), 25 µL, 60 °C, 15 min, n = 1) was 77%, the “[18F]AmBF3(ox.)-TOC (%)” value ([2]; 2.5 nmol peptide, ACN:H2O (75:25), 20 µL, 60 °C, 10 min, n = 1) was 59% and the “[18F]AmBF3(ox.)-TOC (%)” value ([2]; 5 nmol peptide, 0.01 mM citrate buffer, 180 µL, pH 4, 37 °C, 10 min) was 4%. For the same compound, the “[18F]AmBF3(ox.)-TOC (%)” value ([2]; 5 nmol peptide, 0.15 mM citrate buffer, 180 µL, pH 3.75, 37 °C, 10 min) was 5%, the “[18F]AmBF3(ox.)-TOC (%)” value ([2]; 5 nmol peptide, 10 x PBS, 180 µL, pH 6.8, 37 °C, 10 min) was 5% and the “[18F]AmBF3(ox.)-TOC (%)” value ([2]; 7.5 nmol peptide, ACN:H2O (13:87), 150 µL, 60 °C, 10 min) was 25%. For the same compound, the “[18F]AmBF3(ox.)-TOC (%)” value ([2]; 7.5 nmol peptide, ACN:H2O (25:75), 20 µL, 40 °C, 20 min) was 86%, the “[18F]AmBF3(ox.)-TOC (%)” value ([2]; 2-50 nmol peptide, ACN:H2O (≥95% H2O), 20-200 µL, 60 °C, 10 min, n = 1) was 100% and the “Conversion of DHP peak cluster (tR ≈ 20 min) to single oxidized peak (tR = 17 min) at room temperature” value ([2]; collected HPLC fraction left at room temperature for 18 hours (overnight), HPLC-DAD and UHPLC-HRMS) was “total conversion”. The “Conversion to oxidized form of the peptide cycloadduct” value [2] was “full conversion”, the “Cell uptake in AR42J cells (specificity, blocking with octreotide)” value ([4]; 1 million AR42J cells per well, 37 °C, triplicates per timepoint, blocked by co-incubation with excess non-radiolabelled octreotide) was “specific uptake” and the “Internalization by AR42J cells” value ([4]; internalized fraction after glycine buffer (pH 2.8) wash and 1 M NaOH lysis) was “internalized by the cells”. The “Tumour visualization in vivo” value [5] was “able to visualize the tumour in vivo” and the LogD7.4 ([3]; shake-flask 1-octanol/PBS (pH 7.4) 1:1, 25 µL purified radiolabelled compound, shaken 500 rpm 10 min, centrifuged 1000 × g 5 min, gamma counter, mean ± SD, n = 3-4, HPLC-separated fractions (DHP a 77%, DHP b 88% pure), listed as [^18F]6(ox.)) was −0.73 ± 0.12.
